Data on 4 molecules can be found in ChEMBL document CHEMBL1146263, “Antibiotic-conjugated polyacrylate nanoparticles: new opportunities for development of anti-MRSA agents” (Bioorg Med Chem Lett, 2007).

One may read the MIC as the least concentration at which growth counts as inhibited. A lower MIC goes with inhibition by little substance.

In brackets after ≈: the same amount, converted by molar mass.

The test system of data set [1] is Staphylococcus aureus. As to the kind of experiment: Antibacterial activity against Staphylococcus aureus ATCC 25923 after 24 hrs by agar dilution method. It counts as functional. The following applies: ATCC 25923, 24 h.
Data set [2] concerns Staphylococcus aureus. As to the kind of experiment: Antibacterial activity against methicillin-resistant Staphylococcus aureus ATCC 43300 after 24 hrs by agar dilution method. The following applies: ATCC 43300, 24 h. It counts as functional. In general terms: In agar dilution the substance is mixed into plates at graded concentrations.
For data set [3], the system named is Serum. In words: Stability in human blood serum after 24 hrs. It counts as ADME, cell-free.
Data set [4] in a line: Toxicity in human dermal fibroblasts. It counts as cell-based. The following applies: fibroblast.
The nature of data set [5]: Chemical stability up to 60 degC after 24 hrs. It counts as physicochemical.

For the molecule `C=CC(=O)Oc1ccc(C2C(OC)C(=O)N2SC)cc1` (stereo not given), the MIC in data set [1] and in data set [2] was 128 µg/mL (≈ 436 µM) in each case. Besides, the Activity entry was “Stable” in data set [3], “Non-toxic” in data set [4] and “Stable” in data set [5].
For the molecule `C=CC(=O)Oc1ccc(C2C(OC(=O)C=C)C(=O)N2SC)cc1` (stereo not given), the MIC in data set [1] and in data set [2] was 128 µg/mL (≈ 384 µM) each time. The figures for the Activity result in data set [3], in data set [4] and in data set [5] were “Stable”, “Non-toxic” and “Stable”, respectively.
On to `C=CC(=O)OC1C(=O)N(SC)C1c1ccccc1Cl` (stereo not given), for which the minimal inhibitory concentration (MIC) in data set [1] and in data set [2] was 128 µg/mL (≈ 430 µM) each time. For the same molecule, the results for the Activity result in data set [3], in data set [4] and in data set [5] were “Stable”, “Non-toxic” and “Stable”, respectively.
Regarding `C=CC(=O)OCCOC(=O)CCC(=O)OC1C(=O)N(SC)C1c1ccccc1Cl` (stereo not given), the MIC in data set [1] and in data set [2] was 64 µg/mL (≈ 145 µM) in each case. Also, the results for the Activity entry in data set [3], in data set [4] and in data set [5] were “Stable”, “Non-toxic” and “Stable”, respectively.
